From ChEMBL document CHEMBL1201862, “PubChem BioAssay data set” (2004)
The source made the active and inactive calls.

Key:
Candida albicans = assay: reversal of fluconazole resistance in C. albicans, dose response, CaCi-2 strain, Alamar Blue, dry powder, set 3 (AID 488907); assay type: functional, organism-based
[1] = molecular target: T1, Microphthalmia-associated transcription factor (Homo sapiens, UniProt O75030); assay: TRPM1 promoter luciferase signal decrease, dose response, MITF inhibitor project, cell-based, SK-MEL-5, cherry-picked, set 3 (AID 493073); assay type: functional
T1 sequence (O75030 whole entry): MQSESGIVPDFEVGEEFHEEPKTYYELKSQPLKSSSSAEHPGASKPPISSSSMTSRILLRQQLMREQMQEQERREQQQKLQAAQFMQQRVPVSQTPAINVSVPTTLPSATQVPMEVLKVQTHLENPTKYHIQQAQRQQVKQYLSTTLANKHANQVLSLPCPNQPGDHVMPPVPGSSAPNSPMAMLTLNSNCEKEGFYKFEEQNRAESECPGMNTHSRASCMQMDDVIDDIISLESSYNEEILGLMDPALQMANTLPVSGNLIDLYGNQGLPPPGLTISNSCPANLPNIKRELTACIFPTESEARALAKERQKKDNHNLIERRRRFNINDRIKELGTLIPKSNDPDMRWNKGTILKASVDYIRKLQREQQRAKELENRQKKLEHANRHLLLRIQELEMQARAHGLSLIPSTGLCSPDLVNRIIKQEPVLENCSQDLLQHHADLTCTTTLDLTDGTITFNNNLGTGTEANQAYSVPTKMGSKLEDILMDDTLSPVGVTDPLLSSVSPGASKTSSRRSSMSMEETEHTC

A-375 [2] = assay: MITF: Counter assay: A375 proliferation Measured in Cell-Based System Using Plate Reader - 2084-03_Inhibitor_Dose_DryPowder_Activity. [Related pubchem assays (depositor defined):AID488944]; assay type: functional; details: Homo sapiens
[3] = growth suppression of beta-catenin-knockout colon cells, dose response, cell-based, HCT116, human colon tumor (AID 1045); assay type: functional;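 further: HCT116 colon tumor cells with beta catenin knocked out; cells exposed to compound for 60 hours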
[4] = growth suppression of PTEN-null colon cells, dose response, cell-based, HCT116 PTEN knockout (AID 1047); assay type: functional;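 further: HCT116 colon tumor cells with PTEN knocked out; cells exposed to compound for 60 hours before readout; potency for loss of cell viability measured by luminescence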
INS1 = assay: beta cell apoptosis inhibitors, cytokine rescue, dose response, luminescence, retest (AID 449756); assay type: functional, cell-based; details: Rattus norvegicus;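 further: cell death triggered by IL-1 beta plus TNF-alpha plus IFN-gamma mixture; protective hits raise ATP signal compared with cytokine alone wells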
Galanin receptor type 3 = Galanin receptor type 3 (Homo sapiens, UniProt O60755); assay: Fluorescence-based cell-based primary high throughput dose response assay to identify antagonists of the Galanin Receptor 3 (GalR3).; assay type: functional
Sequence of Galanin receptor type 3 (O60755 whole entry, the tested form may be a part): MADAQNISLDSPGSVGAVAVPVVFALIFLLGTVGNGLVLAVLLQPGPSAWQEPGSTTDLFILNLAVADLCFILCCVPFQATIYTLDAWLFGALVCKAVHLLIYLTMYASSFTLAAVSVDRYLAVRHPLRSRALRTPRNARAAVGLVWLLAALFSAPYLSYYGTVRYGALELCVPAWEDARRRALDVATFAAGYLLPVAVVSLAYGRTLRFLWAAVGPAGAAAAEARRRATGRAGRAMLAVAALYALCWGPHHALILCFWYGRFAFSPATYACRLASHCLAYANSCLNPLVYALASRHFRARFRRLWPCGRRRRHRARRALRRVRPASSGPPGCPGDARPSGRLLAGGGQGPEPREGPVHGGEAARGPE

[5] = ZM109 Env clade C HIV-1 fusion inhibitors, dose response, HeLa effector, CEM target cells, luciferase, cherry-pick (AID 652058); assay type: functional, cell-based
cells = assay type: functional, cell-based; details: HEK-CNG
[6] = cytotoxicity toward DRD oncogenic fibroblasts, dose response, cell-based, non-viral oncogenic, luminescence (AID 1934); assay type: functional; details: Homo sapiens
Jurkat = assay: antigen receptor-induced NF-kB inhibitors, dose response, Jurkat, luciferase reporter, luminescence, B- and T-cell (AID 489004); assay type: functional, cell-based; details: Homo sapiens;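 further: NF-kB luciferase reporter Jurkat cells stimulated with PMA plus ionomycin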
[7] = off-target signal loss in HeLa-CEM21 co-culture – HeLa F-luc CTL cells, cherry-picked, counter-screen for HIV-1 Env fusion inhibitor project, dose response (AID 652040); assay type: functional, cell-based;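 further: potency for signal decrease marking cytotoxic or nonspecific inhibition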
BJ [8] = assay: cytotoxicity toward BJ-TERT fibroblasts, dose response, cell-based, RAS-independent, luminescence (AID 1933); assay type: functional; details: Homo sapiens
[9] = CEM21 lymphoblast cell cytotoxicity, dose response, cytotoxicity control for viral fusion inhibitor project, CellTiter-Glo luminescence, cherry-picked (AID 652042); assay type: functional, cell-based;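 further: potency for signal decrease meaning cytotoxicity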
[10] = cytotoxicity in HEK-293T NF-kB-Luc cells, dose response, cytotoxicity control for B/T-cell NF-kB inhibitor project, cell-based, uHTS hits (AID 489019); assay type: functional;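 further: IC50 reflects cytotoxicity as loss of cell viability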
[11] = inhibitors of HIV Env-driven cell fusion, dose response, cherry-pick (AID 652057); assay type: functional, cell-based
BJ [12] = assay: cytotoxicity toward BJ-TERT-LT-ST fibroblasts, dose response, cell-based, RAS-independent, luminescence (AID 1935); assay type: functional; details: Homo sapiens;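 further: BJ fibroblasts immortalized with TERT plus LT and ST oncogenes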
[13] = inhibitors of clade B AD8 Env fusion, dose response, cell-based, cherry-pick (AID 652062); assay type: functional;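 further: luciferase signal from cell-cell fusion driven by HIV-1 clade B AD8 Env; potency is for inhibitors of fusion seen as a drop in luminescence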
BJ [14] = assay: cells; assay type: functional, cell-based; details: Homo sapiens
[15] = HeLa cell cytotoxicity, dose response, cytotoxicity control for MgcRacGAP inhibitor project (AID 624300); assay type: functional
A-375 [16] = assay: A375 melanoma cell viability reduction, dose response, counter-screen for MITF modulator project, cherry-pick samples, set 2 (AID 540335); assay type: functional, cell-based; details: Homo sapiens
[17] = molecular target: T2, Rac GTPase-activating protein 1 (Homo sapiens, UniProt Q9H0H5); assay: MgcRacGAP GTPase-activating activity inhibitors, confirmation, biochemical, ADP Hunter fluorescence, primary and confirmatory (AID 624330); assay type: functional
T2 sequence (Q9H0H5 whole entry): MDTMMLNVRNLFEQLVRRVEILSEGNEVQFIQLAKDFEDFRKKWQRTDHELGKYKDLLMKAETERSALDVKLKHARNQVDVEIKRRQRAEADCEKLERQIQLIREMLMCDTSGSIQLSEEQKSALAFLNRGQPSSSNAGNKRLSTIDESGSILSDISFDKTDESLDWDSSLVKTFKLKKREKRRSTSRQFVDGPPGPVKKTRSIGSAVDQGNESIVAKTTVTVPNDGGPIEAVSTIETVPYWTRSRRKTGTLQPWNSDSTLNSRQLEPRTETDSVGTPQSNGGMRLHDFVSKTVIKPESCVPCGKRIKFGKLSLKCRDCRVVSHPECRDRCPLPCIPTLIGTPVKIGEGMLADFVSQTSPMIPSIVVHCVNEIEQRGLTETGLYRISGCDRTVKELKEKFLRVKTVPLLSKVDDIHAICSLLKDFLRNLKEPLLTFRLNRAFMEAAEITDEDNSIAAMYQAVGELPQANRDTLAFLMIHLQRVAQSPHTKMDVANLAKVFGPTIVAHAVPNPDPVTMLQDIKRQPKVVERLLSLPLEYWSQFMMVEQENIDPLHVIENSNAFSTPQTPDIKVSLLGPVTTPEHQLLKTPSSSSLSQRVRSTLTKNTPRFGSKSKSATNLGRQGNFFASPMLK

COc1cccnc1N1CCN(C(=O)c2ccc(Cl)cc2)CC1
AC50 (Candida albicans): 12.3 µM (active)

Cc1ccc(Cn2c(=N)n(CC(=O)c3ccc([N+](=O)[O-])cc3)c3ccccc32)cc1
AC50 [1]: 6.42 µM (active) | AC50 (A-375 [2]): 33.5 µM (active) | EC50 [3]: 4.07 µM (active) | EC50 [4]: 5.32 µM (active)

CCCCCCCCCn1ccc(=N)cc1
AC50 (INS1): 0.48 µM (active) | IC50 (Galanin receptor type 3): 1.95 µM (active) | AC50 [5]: 2 µM (active) | EC50 (cells): > 29.9 µM (inactive) | EC50 [6]: 9.21 µM (active) | IC50 (Jurkat): 6.34 µM (active) | AC50 [7]: 2.39 µM (active) | EC50 (BJ [8]): 9.76 µM (inconclusive) | AC50 [9]: 24.1 µM (active) | IC50 [10]: > 80 µM (inactive) | AC50 [11]: 8.77 µM (active) | EC50 (BJ [12]): > 150 µM (inconclusive) | AC50 [13]: 0.848 µM (active) | EC50 (BJ [14]): 11.9 µM (active)

CN(C)CCNc1ccc2nnn3c4ccc(O)cc4c(=O)c1c23
CC50 [15]: 56.5 µM (active) | AC50 [1]: 4.73 µM (active) | AC50 (A-375 [16]): 46 µM (active) | IC50 [17]: 62.6 µM (active)
